Patent US10329291B2, “C5-C6-carbocyclic fused iminothiadiazine dioxides as BACE inhibitors, compositions, and their use” (Merck Sharp & Dohme Corp., priority 2015, dated 2019)

Target: purified human autoBACE-2 (Homo sapiens (Human), UniProt Q9Y5Z0)
Assay: BACE-2 Assay (BACE-HTRF assay)
Conditions: not given

Sequence of purified human autoBACE-2 (Q9Y5Z0 63-473 limits assumed): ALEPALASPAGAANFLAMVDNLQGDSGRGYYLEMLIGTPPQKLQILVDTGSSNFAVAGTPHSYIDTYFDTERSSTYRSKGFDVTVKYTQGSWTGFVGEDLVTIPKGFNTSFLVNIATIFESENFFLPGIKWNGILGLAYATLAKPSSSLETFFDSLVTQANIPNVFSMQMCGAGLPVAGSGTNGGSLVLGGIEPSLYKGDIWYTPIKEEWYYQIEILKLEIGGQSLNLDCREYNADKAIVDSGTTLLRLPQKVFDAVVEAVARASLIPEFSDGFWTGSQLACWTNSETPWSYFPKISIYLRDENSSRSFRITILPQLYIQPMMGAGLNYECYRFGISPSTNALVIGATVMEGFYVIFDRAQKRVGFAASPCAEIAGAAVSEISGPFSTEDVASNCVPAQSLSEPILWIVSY

Row | Structure (SMILES) | Ki
1 | CN1C(=N)N[C@@]2(c3cc(Oc4ncccc4F)ccc3F)CCC[C@H]2S1(=O)=O [Example 34, (4aR,7aR)-4a-(2-fluoro-5-((3-fluoropyridin-2-yl)oxy)phenyl)-3-imino-2-methyloctahydrocyclopenta[e][1,2,4]thiadiazine 1,1-dioxide] | 75 nM

Same assay, conditions: read-out: BACE-2 Inh. @ 10 μM

Row | Structure (SMILES) | inhibition at 10 µM
2 | CN1C(=N)N[C@@]2(c3cc(Br)ccc3F)CCC[C@H]2S1(=O)=O [Example 33, (4aR,7aR)-4a-(5-bromo-2-fluorophenyl)-3-imino-2-methyloctahydrocyclopenta[e][1,2,4]thiadiazine 1,1-dioxide] | 18%

Target: soluble human BACE-1 catalytic domain (Homo sapiens (Human), UniProt P56817)
Assay: BACE-1 Ki Assay (BACE-1 HTRF FRET Assay)
Assay type: biochemical
Conditions: Ki calculated from IC50 using the Cheng-Prusoff equation; QSY7-APPswe-Eu substrate, pH 5.0; read-out: BACE1 Ki
From the text: The following reagents were used in this assay. Na^+-Acetate pH 5.0; 1% Brij-35; Glycerol; Dimethyl Sulfoxide (DMSO); Recombinant human soluble BACE-1 catalytic domain (>95% pure); APP Swedish mutant peptide substrate (QSY7-APP^swe-Eu): QSY7-[…]-Europium-amide.
A homogeneous time-resolved FRET assay can be used to determine IC50 values for inhibitors of the soluble human BACE-1 catalytic domain. This assay monitors the increase of 620 nm fluorescence that resulted from BACE-1 cleavage of an APPswedish APP^swe mutant peptide FRET substrate (QSY7-[…]-Europium-amide). This substrate contains an N-terminal QSY7 moiety that serves as a quencher of the C-terminal Europium fluorophore (620 nm Em). In the absence of enzyme activity, 620 nm fluorescence is low in the assay and increased linearly over 3 hours in the presence of uninhibited BACE-1 enzyme. Inhibition of BACE-1 cleavage of the QSY7-APP^swe-Eu substrate by inhibitors is manifested as a suppression of 620 nm fluorescence.
Reactions are initiated by addition of 10 μl of 600 nM QSY7-APP^swe-Eu substrate (200 nM final) to give a final reaction volume of 30 μl in a 384 well Nunc HTRF plate. The reactions are incubated at 30° C. for 1.5 hours. […] Inhibitor IC50 values are derived from non-linear regression analysis of concentration response curves. Ki values are then calculated from IC50 values using the Cheng-Prusoff equation using a previously determined […] of 8 μM for the QSY7-APP^swe-Eu substrate at BACE-1. The example compounds of the invention were measured in this assay.

Sequence of soluble human BACE-1 catalytic domain (P56817 75-416): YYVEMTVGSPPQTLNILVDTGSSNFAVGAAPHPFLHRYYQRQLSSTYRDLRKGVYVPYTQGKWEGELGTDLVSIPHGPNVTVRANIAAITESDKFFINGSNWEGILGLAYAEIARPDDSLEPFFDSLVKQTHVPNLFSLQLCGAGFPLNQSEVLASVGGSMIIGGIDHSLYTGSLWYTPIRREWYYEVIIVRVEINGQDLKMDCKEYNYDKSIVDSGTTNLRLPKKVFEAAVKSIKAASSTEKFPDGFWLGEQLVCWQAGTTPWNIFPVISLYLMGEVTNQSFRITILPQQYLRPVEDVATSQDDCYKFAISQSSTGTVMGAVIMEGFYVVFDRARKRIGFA

Row | Structure (SMILES) | Ki
3 | COc1cnc2c(Nc3ccc(F)c([C@]45CCC[C@H]4S(=O)(=O)N(C)C(=N)N5)c3)nccc2c1 [Example 19] | 31 nM
4 | CN1C(=N)N[C@@]2(c3cc(NC(=O)c4ncc(Cl)cc4F)ccc3F)CCC[C@H]2S1(=O)=O [Example 8, 5-chloro-3-fluoro-N-(4-fluoro-3-((4aR,7aR)-3-imino-2-methyl-1,1-dioxidohexahydrocyclopenta[e][1,2,4]thiadiazin-4a(2H)-yl)phenyl)picolinamide] | 4 nM
5 | Cc1cc(F)cnc1C(=O)Nc1ccc(F)c([C@]23CCC[C@H]2S(=O)(=O)N(C)C(=N)N3)c1 [Example 10, 5-fluoro-N-(4-fluoro-3-((4aR,7aR)-3-imino-2-methyl-1,1-dioxidohexahydrocyclopenta[e][1,2,4]thiadiazin-4a(2H)-yl)phenyl)-3-methylpicolinamide] | 10 nM
6 | Cc1ccc(C(=O)Nc2ccc(F)c([C@]34CCC[C@H]3S(=O)(=O)N(C)C(=N)N4)c2)nc1 [Example 7, N-(4-fluoro-3-((4aR,7aR)-3-imino-2-methyl-1,1-dioxidohexahydrocyclopenta[e][1,2,4]thiadiazin-4a(2H)-yl)phenyl)-5-methylpicolinamide] | 42 nM
7 | CN1C(=N)N[C@@]2(c3cc(Oc4ncccc4F)ccc3F)CCC[C@H]2S1(=O)=O [Example 34, (4aR,7aR)-4a-(2-fluoro-5-((3-fluoropyridin-2-yl)oxy)phenyl)-3-imino-2-methyloctahydrocyclopenta[e][1,2,4]thiadiazine 1,1-dioxide] | 89 nM
8 | Cc1cnc(C(=O)Nc2ccc(F)c([C@]34CCC[C@H]3S(=O)(=O)N(C)C(=N)N4)c2)cn1 [Example 6, N-(4-fluoro-3-((4aR,7aR)-3-imino-2-methyl-1,1-dioxidohexahydrocyclopenta[e][1,2,4]thiadiazin-4a(2H)-yl)phenyl)-5-methylpyrazine-2-carboxamide] | 126 nM
9 | C#CCOc1ccc(C(=O)Nc2ccc(F)c([C@]34CCC[C@H]3S(=O)(=O)N(C)C(=N)N4)c2)nc1 [Example 18, N-(4-fluoro-3-((4aR,7aR)-3-imino-2-methyl-1,1-dioxidohexahydrocyclopenta[e][1,2,4]thiadiazin-4a(2H)-yl)phenyl)-5-(prop-2-yn-1-yloxy)picolinamide] | 3 nM
10 | COc1cnc2c(Nc3ccc(F)c([C@]45CCC[C@H]4S(=O)(=O)N(C)C(=N)N5)c3)nccc2n1 [Example 20, (4aR,7aR)-4a-(2-fluoro-5-(2-methoxypyrido[3,4-b]pyrazin-5-ylamino)phenyl)-3-imino-2-methyloctahydrocyclopenta[e][1,2,4]thiadiazine 1,1-dioxide] | 36 nM
11 | COc1ccc(C(=O)Nc2ccc(F)c([C@]34CCC[C@H]3S(=O)(=O)N(C)C(=N)N4)c2)nc1 [Example 15, N-(4-fluoro-3-((4aR,7aR)-3-imino-2-methyl-1,1-dioxidohexahydrocyclopenta[e][1,2,4]thiadiazin-4a(2H)-yl)phenyl)-5-methoxypicolinamide] | 16 nM
12 | CN1C(=N)N[C@@]2(c3cc(NC(=O)c4cnc(C(F)(F)F)cn4)ccc3F)CCC[C@H]2S1(=O)=O [Example 14, N-(4-fluoro-3-((4aR,7aR)-3-imino-2-methyl-1,1-dioxidohexahydrocyclopenta[e][1,2,4]thiadiazin-4a(2H)-yl)phenyl)-5-(trifluoromethyl)pyrazine-2-carboxamide] | 25 nM
13 | COc1cnc(C(=O)Nc2ccc(F)c([C@]34CCC[C@H]3S(=O)(=O)N(C)C(=N)N4)c2)c(C)n1 [Example 12, N-(4-fluoro-3-((4aR,7aR)-3-imino-2-methyl-1,1-dioxidohexahydrocyclopenta[e][1,2,4]thiadiazin-4a(2H)-yl)phenyl)-5-methoxy-3-methylpyrazine-2-carboxamide] | 23 nM
14 | CN1C(=N)N[C@@]2(c3cc(NC(=O)c4cnc(OCC(F)(F)F)cn4)ccc3F)CCC[C@H]2S1(=O)=O [Example 16, N-(4-fluoro-3-((4aR,7aR)-3-imino-2-methyl-1,1-dioxidohexahydrocyclopenta[e][1,2,4]thiadiazin-4a(2H)-yl)phenyl)-5-(2,2,2-trifluoroethoxy)pyrazine-2-carboxamide] | 7 nM
15 | COCC(=O)Nc1ccc(F)c(C23CCCC2S(=O)(=O)N(C)C(=N)N3)c1 (stereo not shown) [Example 35, N-(4-fluoro-3-(3-imino-2-methyl-1,1-dioxidohexahydrocyclopenta[e][1,2,4]thiadiazin-4a(2H)-yl)phenyl)-2-methoxy acetamide] | 368 nM
16 | CN1C(=N)N[C@@]2(c3cc(NC(=O)c4cnc(OCCF)cn4)ccc3F)CCC[C@H]2S1(=O)=O [Example 2, N-(4-fluoro-3-((4aR,7aR)-3-imino-2-methyl-1,1-dioxidohexahydrocyclopenta[e][1,2,4]thiadiazin-4a(2H)-yl)phenyl)-5-(2-fluoroethoxy)pyrazine-2-carboxamide] | 18 nM
17 | COc1cnc(C(=O)Nc2ccc(F)c([C@]34CCC[C@H]3S(=O)(=O)N(C)C(=N)N4)c2)c(C)c1 [Example 11, N-(4-fluoro-3-((4aR,7aR)-3-imino-2-methyl-1,1-dioxidohexahydrocyclopenta[e][1,2,4]thiadiazin-4a(2H)-yl)phenyl)-5-methoxy-3-methylpicolinamide] | 16 nM
18 | CN1C(=N)N[C@@]2(c3cc(NC(=O)c4ccc(Cl)cn4)ccc3F)CCC[C@H]2S1(=O)=O [Example 4, 5-chloro-N-(4-fluoro-3-((4aR,7aR)-3-imino-2-methyl-1,1-dioxidohexahydrocyclopenta[e][1,2,4]thiadiazin-4a(2H)-yl)phenyl)picolinamide] | 3 nM
19 | CN1C(=N)N[C@@]2(c3cc(NC(=O)c4ccc(F)cn4)ccc3F)CCC[C@H]2S1(=O)=O [Example 1] | 10 nM
20 | CN1C(=N)N[C@@]2(c3cc(NC(=O)c4ncc(F)cc4F)ccc3F)CCC[C@H]2S1(=O)=O [Example 9, 3,5-difluoro-N-(4-fluoro-3-((4aR,7aR)-3-imino-2-methyl-1,1-dioxidohexahydrocyclopenta[e][1,2,4]thiadiazin-4a(2H)-yl)phenyl)picolinamide] | 22 nM
21 | COc1cnc(C(=O)Nc2ccc(F)c([C@]34CCC[C@H]3S(=O)(=O)N(C)C(=N)N4)c2)cn1 [Example 17, N-(4-fluoro-3-((4aR,7aR)-3-imino-2-methyl-1,1-dioxidohexahydrocyclopenta[e][1,2,4]thiadiazin-4a(2H)-yl)phenyl)-5-methoxypyrazine-2-carboxamide] | 11 nM
22 | COc1cnc2c(Nc3ccc(F)c([C@]45CCC[C@H]4S(=O)(=O)N(C)C(=N)N5)c3)ccnc2c1 [Example 21] | 206 nM
23 | CN1C(=N)N[C@@]2(c3cc(NC(=O)c4ccc(OC(F)F)cn4)ccc3F)CCC[C@H]2S1(=O)=O [Example 3, 5-(difluoromethoxy)-N-(4-fluoro-3-((4aR,7aR)-3-imino-2-methyl-1,1-dioxidohexahydrocyclopenta[e][1,2,4]thiadiazin-4a(2H)-yl)phenyl)picolinamide] | 4 nM
24 | CN1C(=N)NC2(c3cc(NC(=O)C(F)F)ccc3F)CCCC2S1(=O)=O (stereo not shown) [Example 36] | 1080 nM
25 | CN1C(=N)NC2(c3cc(NC(=O)c4ccc(Cl)cn4)ccc3F)CC2S1(=O)=O (stereo not shown) [Example 32, 5-chloro-N-(4-fluoro-3-(4-imino-3-methyl-2,2-dioxido-2-thia-3,5-diazabicyclo[4.1.0]heptan-6-yl)phenyl)picolinamide] | 2520 nM
26 | CN1C(=N)N[C@@]2(c3cc(NC(=O)c4ccc(C#N)cn4)ccc3F)CCC[C@H]2S1(=O)=O [Example 5, 5-cyano-N-(4-fluoro-3-((4aR,7aR)-3-imino-2-methyl-1,1-dioxidohexahydrocyclopenta[e][1,2,4]thiadiazin-4a(2H)-yl)phenyl)picolinamide] | 4 nM

Same assay, conditions: read-out: BACE-1 Inh. @ 10 μM

Row | Structure (SMILES) | inhibition at 10 µM
27 | CN1C(=N)NC2(c3ccccc3F)CCCC2S1(=O)=O (stereo not shown) [Example 37, 4a-(2-fluorophenyl)-3-imino-2-methyloctahydrocyclopenta[e][1,2,4]thiadiazine 1,1-dioxide] | 43%
28 | CN1C(=N)N[C@@]2(c3cc(Br)ccc3F)CCC[C@H]2S1(=O)=O [Example 33, (4aR,7aR)-4a-(5-bromo-2-fluorophenyl)-3-imino-2-methyloctahydrocyclopenta[e][1,2,4]thiadiazine 1,1-dioxide] | 18%
